# Data: PubChem BioAssay (NCI)
#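 Exposure lasted 48 hours, with cells grown in 96-well plates and compounds tested at five concentrations. TGI: concentration producing complete growth inhibition.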
# Tests used:
# Assay in all cases: inhibition of tumour cell growth, NCI panel, 48 h
# HCT-15 colon = system: HCT-15 colon
# NCI/ADR-RES ovarian = system: NCI/ADR-RES ovarian
# NCI-H460 lung = system: NCI-H460 lung
# HOP-92 NSCLC = system: HOP-92 NSCLC
# SR leukemia = system: SR leukemia
# SK-MEL-2 melanoma = system: SK-MEL-2 melanoma
# SF-539 CNS = system: SF-539 CNS
# OVCAR-3 ovarian = system: OVCAR-3 ovarian
# DU-145 prostate = system: DU-145 prostate
# MCF7 breast = system: MCF7 breast
# PC-3 prostate = system: PC-3 prostate
# U251 CNS = system: U251 CNS
# 786-0 renal = system: 786-0 renal
# COLO 205 colon = system: COLO 205 colon
# SN12C renal = system: SN12C renal
# SK-MEL-5 melanoma = system: SK-MEL-5 melanoma
# SW-620 colon = system: SW-620 colon
# MDA-N = system: MDA-N
# OVCAR-5 ovarian = system: OVCAR-5 ovarian
# SNB-19 CNS = system: SNB-19 CNS
# ACHN renal = system: ACHN renal
# MDA-MB-435 = system: MDA-MB-435
# HCT-116 colon = system: HCT-116 colon
# T-47D breast = system: T-47D breast
# NCI-H226 lung = system: NCI-H226 lung
# SF-268 CNS = system: SF-268 CNS
# M14 melanoma = system: M14 melanoma
# OVCAR-4 ovarian = system: OVCAR-4 ovarian
# RXF 393 renal = system: RXF 393 renal
# UACC-257 melanoma = system: UACC-257 melanoma
# A549 NSCLC = system: A549 NSCLC
# IGROV1 ovarian = system: IGROV1 ovarian
# K-562 leukemia = system: K-562 leukemia
# MDA-MB-231 breast = system: MDA-MB-231 breast
# HS 578T breast = system: HS 578T breast
# EKVX NSCLC = system: EKVX NSCLC
# MALME-3M melanoma = system: MALME-3M melanoma
# NCI-H23 lung = system: NCI-H23 lung
# OVCAR-8 ovarian = system: OVCAR-8 ovarian
# SK-MEL-28 melanoma = system: SK-MEL-28 melanoma
# HL-60(TB) leukemia = system: HL-60(TB) leukemia
# LOX IMVI melanoma = system: LOX IMVI melanoma
# CCRF-CEM leukemia = system: CCRF-CEM leukemia
# UACC-62 melanoma = system: UACC-62 melanoma
# CAKI-1 renal = system: CAKI-1 renal
# SNB-75 CNS = system: SNB-75 CNS
# UO-31 renal = system: UO-31 renal
# SF-295 CNS = system: SF-295 CNS
# A498 renal = system: A498 renal
# TK-10 renal = system: TK-10 renal
# SK-OV-3 ovarian = system: SK-OV-3 ovarian
# HT29 colon = system: HT29 colon
# BT-549 breast = system: BT-549 breast
# NCI-H522 lung = system: NCI-H522 lung
# MOLT-4 leukemia = system: MOLT-4 leukemia
# KM12 colon = system: KM12 colon
compound,measurement,setting,value
COP(=O)(OC)[C@@](O)(c1ccccc1)[C@@H](O)[C@H](O)c1ccccc1,TGI,HCT-15 colon,> 100 µM
same,TGI,NCI/ADR-RES ovarian,> 100 µM
same,TGI,NCI-H460 lung,> 100 µM
same,TGI,HOP-92 NSCLC,> 100 µM
same,TGI,SR leukemia,> 100 µM
same,TGI,SK-MEL-2 melanoma,> 100 µM
same,TGI,SF-539 CNS,> 100 µM
same,TGI,OVCAR-3 ovarian,> 100 µM
same,TGI,DU-145 prostate,> 100 µM
same,TGI,MCF7 breast,63.3 µM
same,TGI,PC-3 prostate,> 100 µM
same,TGI,U251 CNS,> 100 µM
same,TGI,786-0 renal,> 100 µM
same,TGI,COLO 205 colon,> 100 µM
same,TGI,SN12C renal,> 100 µM
same,TGI,SK-MEL-5 melanoma,> 100 µM
same,TGI,SW-620 colon,> 100 µM
same,TGI,MDA-N,> 100 µM
same,TGI,OVCAR-5 ovarian,> 100 µM
same,TGI,SNB-19 CNS,> 100 µM
same,TGI,ACHN renal,> 100 µM
same,TGI,MDA-MB-435,> 100 µM
same,TGI,HCT-116 colon,> 100 µM
same,TGI,T-47D breast,> 100 µM
same,TGI,NCI-H226 lung,> 100 µM
same,TGI,SF-268 CNS,> 100 µM
same,TGI,M14 melanoma,> 100 µM
same,TGI,OVCAR-4 ovarian,> 100 µM
same,TGI,RXF 393 renal,> 100 µM
same,TGI,UACC-257 melanoma,> 100 µM
same,TGI,A549 NSCLC,> 100 µM
same,TGI,IGROV1 ovarian,> 100 µM
same,TGI,K-562 leukemia,> 100 µM
same,TGI,MDA-MB-231 breast,> 100 µM
same,TGI,HS 578T breast,> 100 µM
same,TGI,EKVX NSCLC,> 100 µM
same,TGI,MALME-3M melanoma,> 100 µM
same,TGI,NCI-H23 lung,> 100 µM
same,TGI,OVCAR-8 ovarian,> 100 µM
same,TGI,SK-MEL-28 melanoma,> 100 µM
same,TGI,HL-60(TB) leukemia,> 100 µM
same,TGI,LOX IMVI melanoma,56.4 µM
same,TGI,CCRF-CEM leukemia,41.6 µM
same,TGI,UACC-62 melanoma,> 100 µM
same,TGI,CAKI-1 renal,> 100 µM
same,TGI,SNB-75 CNS,> 100 µM
same,TGI,UO-31 renal,> 100 µM
same,TGI,SF-295 CNS,> 100 µM
same,TGI,A498 renal,> 100 µM
same,TGI,TK-10 renal,> 100 µM
same,TGI,SK-OV-3 ovarian,> 100 µM
same,TGI,HT29 colon,> 100 µM
same,TGI,BT-549 breast,> 100 µM
same,TGI,NCI-H522 lung,> 100 µM
same,TGI,MOLT-4 leukemia,> 100 µM
same,TGI,KM12 colon,> 100 µM
